Test results from US20190225650A1, “PEPTIDOMIMETIC MACROCYCLES AND USE THEREOF IN REGULATING HIF1ALPHA” (AILERON THERAPEUTICS, INC., priority 2013, published 2019).
Bridge positions count the residues as written; N and C are the ends. Square brackets hold non-standard residues; d marks the D form. Peptide text beside a SMILES is read from it. R8 = C=CCCCCCC[C@@](C)(N)C(=O)O; S5 = C=CCCC[C@](C)(N)C(=O)O; Nle = CCCC[C@H](N)C(=O)O

Assays:
[1] = target: T1, flag-tagged HIF1α (AA 786-826) / His6-tagged p300 (AA 323-423) complex (Homo sapiens, UniProt Q09472); assay: HIF1α p300 displacement assay (TR FRET, +CHAPS); type: binding; conditions: read-out: IC50 (nM) (HIF1α_p300 Displacement + CHAPS)
T1 construct: His6-tagged p300 (AA 323-423); made in house; host or cells: E. coli (pETDuet vector)
T1 sequence (Q09472 323-423, one chain of several): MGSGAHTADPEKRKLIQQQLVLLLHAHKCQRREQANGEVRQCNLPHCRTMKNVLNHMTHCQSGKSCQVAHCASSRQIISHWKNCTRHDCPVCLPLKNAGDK
In short: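 In this TR-FRET displacement format, peptides compete HIF1α C-terminal transactivation domain off p300-CH. They were preincubated 1 h at room temperature with 300 nM complex in HEPES pH 7.4/NaCl buffer with 7.5 mM CHAPS and 1 mM DTT. Anti-His-D2 (4 nM) and anti-Flag-K (0.5 μM) followed for 2 h, and a one-site fit of the fluorescence ratio gave IC50.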

[2] = tested on: HRE-bla ME-180 cells; assay: Cell proliferation assay (viability, MTT, 1% FBS); type: cell-based, human
In short: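 Viable cell number was measured with the CellTiter 96 (MTT) kit after compounds were applied for a 16 h normoxic (21% O2) pretreatment, followed by further normoxic or hypoxic (1% O2) culture. Cells: 2×10^4 ME-180 per well, Opti-MEM + 1% FBS, 0.5% DMSO vehicle.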

[3] = tested on: HRE-bla ME-180 cells; assay: Reporter gene assay (HRE-bla ME-180 HIF reporter, GeneBLAzer); type: cell-based, human
In short: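 A FRET β-lactamase readout of HIF transcription was used. After compound treatment in 0.3% DMSO/media under normoxic conditions, 20 μl of 6× LiveBLAzer-FRET B/G (CCF4-AM) substrate was added. Plates sat 3 hr at room temperature in the dark and were read at 409 Ex/460Em and 409Ex/530Em on a Synergy 2. Inhibition was compared against DMSO vehicle controls, with chetomin as positive control.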

IC50 [1] [nM] | EC50 ([3]; 24 hour normoxia) [µM] | Structure (SMILES) | Viability 1% FBS AVG (MTT V3-24 hr Normoxia) (μM) [2] | 18 h Avg % max inhibition at top conc (HIF Rptr-24 hrs normoxia) (μM) ([3]; 18 h, at top conc, 24 hrs normoxia)
400 to 700 | – | CC[C@H](C)[C@H](NC(=O)[C@H](Cc1ccccc1)NC(C)=O)C(=O)N[C@@H](CC(=O)O)C(=O)N[C@@H](CCC(=O)O)C(=O)N[C@@H](CCC(=O)O)C(=O)N[C@H](C(=O)N[C@@H](CC(C)C)C(=O)N[C@@H](CCSC)C(=O)N[C@@]1(C)CCCC=CCCC[C@@](C)(C(=O)N[C@@H](CCSC)C(=O)N[C@@H](C)C(=O)N[C@@H](CC(C)C)C(N)=O)NC(=O)[C@H]([C@@H](C)CC)NC(=O)[C@H](C(C)C)NC(=O)[C@H](CC(C)C)NC1=O)C(C)C [SP-7] (Ac-FIDEEVLM[S5]LVI[S5]MAL-NH2; staple 9-13) | ++++ (≥30: ++++) | –
200 to 400 | – | CCCC[C@@H]1NC(=O)[C@H](CC(C)C)NC(=O)[C@H](C(C)C)NC(=O)[C@@](C)(NC(=O)[C@H](CCC(=O)O)NC(=O)[C@H](CC(=O)O)NC(=O)[C@@H](NC(=O)[C@H](Cc2ccccc2)NC(C)=O)[C@@H](C)CC)CCCC=CCCC[C@@](C)(C(=O)N[C@@H](CC(C)C)C(=O)N[C@H](C(=O)N[C@H](C(=O)N[C@@H](CCC(=O)O)C(=O)N[C@@H](C)C(=O)N[C@@H](C)C(=O)N[C@@H](CC(C)C)C(N)=O)[C@@H](C)CC)C(C)C)NC1=O [SP-145] (Ac-FIDE[S5]VL[Nle][S5]LVIEAAL-NH2; staple 5-9) | ++++ (≥30: ++++) | –
200 to 400 | – | CC[C@H](C)[C@H](NC(=O)[C@H](CCCNC(=N)N)NC(=O)[C@H](CC(=O)O)NC(=O)[C@H](CC(C)C)NC(=O)[C@H](C)NC(=O)[C@H](CCSC)NC(=O)[C@]1(C)CCCC=CCCC[C@](C)(NC(=O)[C@H](CCSC)NC(=O)[C@H](CC(C)C)NC(=O)[C@@H](NC(=O)[C@H](C)NC(=O)[C@H](CCC(=O)O)NC(=O)[C@H](CC(=O)O)NC(=O)[C@@H](NC(=O)[C@H](Cc2ccccc2)NC(C)=O)[C@@H](C)CC)C(C)C)C(=O)N[C@@H](CC(C)C)C(=O)N[C@@H](C(C)C)C(=O)N[C@@H]([C@@H](C)CC)C(=O)N1)C(N)=O [SP-266] (Ac-FIDEAVLM[S5]LVI[S5]MALDRI-NH2; staple 9-13) | ++++ (≥30: ++++) | –
– | > 30 | CCCC[C@H](NC(=O)[C@H](C)NC(=O)[C@]1(C)CCCC=CCCCCCC[C@@](C)(NC(=O)[C@H](C)NC(=O)[C@H](C)NC(=O)[C@@H](NC(=O)[C@H](CC(N)=O)NC(=O)[C@@H](NC(=O)[C@H](CCC(N)=O)NC(=O)[C@]2(C)CCCC=CCCC[C@](C)(NC(=O)[C@H](CC(C)C)NC(=O)[C@H](C)NC(=O)[C@H](C)NC(=O)CNC(=O)[C@H](CCC(N)=O)NC(=O)[C@H](CC(C)C)NC(=O)[C@H](CC(C)C)NC(C)=O)C(=O)N[C@@H](CCCNC(=N)N)C(=O)N[C@@H](C)C(=O)N[C@@H](CC(C)C)C(=O)N2)C(C)C)[C@@H](C)CC)C(=O)N[C@@H](C(C)C)C(=O)N[C@@H](CC(C)C)C(=O)N[C@@H](CCCC)C(=O)N[C@@H](CO)C(=O)N[C@@H](CC(C)C)C(=O)N[C@@H](C(C)C)C(=O)N1)C(N)=O [SP-364] (Ac-LLQGAAL[S5]RAL[S5]QVNIAA[R8]VL[Nle]SLV[S5]A[Nle]-NH2; staple 8-12, 19-26) | ++++ (≥30: ++++) | ++ (≤10 but <25: ++)
